Data set [1] deals with HRV3C (Human rhinovirus 14, UniProt P03303). In words: HRV3C protease assay (duplex, SAMDI-MS). Format: biochemical, HRV. The following applies: HRV3C, 30 mins preincubation, read-out: HRV IC50. The method in brief: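 Enzyme preincubated 30 min with compound at ambient temperature, then both biotinylated peptide substrates added (duplex with 3CLpro); 30 min reaction quenched with 0.5% formic acid (final). Product read by SAMDI-MS as product/internal-standard AUC ratio; IC50 from four-parameter fit.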

In data set [2] the test system is human beta-coronavirus OC43. In words: microbe, parasite or virus in culture. In kind it is cell-based. The following applies: Betacoronavirus 1, OC43, HeLa, 144 h, OC43 in HeLa cells, 6 days at 33° C., class symbols; read-out: EC50.
Data set [3] in a line: Cytotoxicity plates without OC43 virus (cell-titer-glo). Format: cell-based, human. The following applies: human; HeLa cells without OC43 virus, class symbols. Summed up:
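HeLa cells seeded overnight, then treated with serially diluted compounds in 2% FBS EMEM, uninfected, in parallel with the OC43 antiviral plates. Incubated 6 days at 33 °C; viability read by CellTiter-Glo luminescence.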

In data set [4] the test system is SARS-CoV-2-GHB-03021/2020. The experiment in a line: SARS-CoV-2 Infection Model in Huh7 Cells. The following applies: Severe acute respiratory syndrome coronavirus 2, Huh-7, 96 h, SARS-CoV-2, day 4 p.i., MTS, class symbols. Format: cell-based.
Data set [5] relates to SARS-CoV-2-GHB-03021/2020. The experiment in a line: microbe, parasite or virus in culture. The following applies: Severe acute respiratory syndrome coronavirus 2, Vero C1008, 96 h; read-out: VeroE6 + CP (EC50). In kind it is cell-based.
For data set [6], the target named is T1, human cathepsin L (Homo sapiens, UniProt P07711).
T1 construct: purchased R&D Systems
In words: cathepsin L assay. In kind it is biochemical. The following applies: 10 pM human cathepsin L, Z-FR-AMC 2 μM, class symbols. The method in brief:
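Human cathepsin L at 10 pM was preincubated 30 min with compound, then reaction started with Z-FR-AMC (2 μM final). Fluorescence (355/460 nm) read every 2 min for 30 min; IC50 from four-parameter curve fit.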

The nature of data set [7]: in vitro. The following applies: human.
Data set [8] is described as follows: in vitro. The following applies: African green monkey, VeroE6 + CP (CC50), Vero E6-eGFP cells with CP-100356, absence of virus, MTS.
Data set [9] has as its target 3CLpro (Severe acute respiratory syndrome coronavirus 2, UniProt P0DTD1). In words: SARS-CoV-2 3CLpro protease assay (duplex, SAMDI-MS). Also on record: For the duplex assay, 3CLpro and HRV3C was added. The following applies: 3CLpro, 30 mins preincubation, class symbols; read-out: SARS-Cov-2 IC50. In kind it is biochemical.

Read-outs that look alike come from different tables or passages of the source.

What is called IC50 is the point on the concentration scale where inhibition reaches its midpoint. One may read the EC50 as the midpoint of the concentration-response curve. Take `O=C1NCC[C@H]1C[C@H](NC(=O)[C@@H]1[C@H]2CCC[C@H]2CN1C(=O)c1cc2c(Oc3ccccc3)cccc2[nH]1)C(=O)CO` [Compound 123, (1S,3aR,6aS)—N-[(2S)-4-hydroxy-3-oxo-1-[(3S)-2-oxopyrrolidin-3-yl]butan-2-yl]-2-(4-phenoxy-1H-indole-2-carbonyl)-hexahydro-1H-cyclopenta[c]pyrrole-1-carboxamide]: the values for the IC50 in data set [1] (bound), in data set [6] and in data set [9] were > 10 µM, ≥ 10 µM and 0.02 to 0.2 µM, respectively. Besides, the EC50 in [2] was in the range of 0.1 to 1 µM; in data set [4], 1 to 10 µM; in data set [5], 1 to 10 µM. The CC50 at 6 days in data set [3] was > 10 µM. Further, the CC50 in data set [7] and in data set [8] (numeric bounds) was > 50 µM throughout.

Take `COc1ccc(Br)c2[nH]c(C(=O)N3C[C@@H]4CCC[C@@H]4[C@H]3C(=O)N[C@@H](C[C@@H]3CCNC3=O)C(=O)CO)cc12` [Compound 124, (1S,3aR,6aS)-2-(7-bromo-4-methoxy-1H-indole-2-carbonyl)-N-[(2S)-4-hydroxy-3-oxo-1-[(3S)-2-oxopyrrolidin-3-yl]butan-2-yl]-hexahydro-1H-cyclopenta[c]pyrrole-1-carboxamide]: the 50% inhibitory concentration (IC50) is 2 to 20 µM in [1] (class symbols), ≥ 10 µM in data set [6] and < 0.02 µM in data set [9]. For the same molecule, the EC50 is 0.1 to 1 µM in data set [2], < 1 µM in data set [4] and < 1 µM in data set [5]. Also, in data set [3], the CC50 at 6 days was > 10 µM. Further, the CC50 in data set [7] and in [8] (numeric bounds) was > 50 µM in each case.

For `CC(C)C(=O)OCC(=O)[C@H](C[C@@H]1CCNC1=O)NC(=O)[C@@H]1[C@H]2CCC[C@H]2CN1C(=O)c1cc2c(Cl)cc(Cl)cc2[nH]1` [Compound 125, (3S)-3-{[(1S,3aR,6aS)-2-(4,6-dichloro-1H-indole-2-carbonyl)-hexahydro-1H-cyclopenta[c]pyrrol-1-yl]formamido}-2-oxo-4-[(3S)-2-oxopyrrolidin-3-yl]butyl 2-methylpropanoate], the IC50 was > 10 µM in data set [1] (bound), ≥ 10 µM in [6] and 0.2 to 2 µM in [9]. The values for the half-maximal effective concentration (EC50) in data set [2], in data set [4] and in data set [5] were < 0.1 µM, < 1 µM and < 1 µM, respectively. In data set [3], the CC50 at 6 days was > 10 µM. The CC50 in data set [7] was > 10 µM; in [8] (numeric bounds) it was > 50 µM.

On to `O=C1NCC[C@H]1C[C@H](NC(=O)[C@@H]1[C@H]2CCC[C@H]2CN1C(=O)c1cc2c(OC(F)F)cc(Cl)cc2[nH]1)C(=O)CO` [Compound 126, (1S,3aR,6aS)-2-[6-chloro-4-(difluoromethoxy)-1H-indole-2-carbonyl]-N-[(2S)-4-hydroxy-3-oxo-1-[(3S)-2-oxopyrrolidin-3-yl]butan-2-yl]-hexahydro-1H-cyclopenta[c]pyrrole-1-carboxamide], for which the IC50 in data set [1] (class symbols) was 2 to 20 µM; in [6] it was ≥ 10 µM; in data set [9], < 0.02 µM. In addition, the EC50 in data set [2] is < 0.1 µM; in [4], 1 to 10 µM; in [5], 1 to 10 µM. Also, the CC50 at 6 days in [3] is > 10 µM. In addition, the CC50 in data set [7] and in data set [8] (numeric bounds) was > 50 µM each time.

Regarding `CC1(C)[C@@H]2[C@@H](C(=O)N[C@@H](C[C@@H]3CCNC3=O)C(=O)CO)N(C(=O)c3cc4c(Cl)cc(Cl)cc4[nH]3)C[C@@H]21` [Compound 127, (1R,2S,5S)-3-(4,6-dichloro-1H-indole-2-carbonyl)-N-[(2S)-4-hydroxy-3-oxo-1-[(3S)-2-oxopyrrolidin-3-yl]butan-2-yl]-6,6-dimethyl-3-azabicyclo[3.1.0]hexane-2-carboxamide], the IC50 was 2 to 20 µM in [1] (class symbols), ≥ 10 µM in data set [6] and 0.02 to 0.2 µM in data set [9]. The figures for the EC50 in data set [2], in data set [4] and in [5] were 0.1 to 1 µM, < 1 µM and < 1 µM, respectively. For the same molecule, the CC50 at 6 days in [3] is > 10 µM. For the same molecule, the CC50 in data set [7] is > 10 µM; in data set [8] (numeric bounds), > 50 µM.

As for `O=C1NCC[C@H]1C[C@H](NC(=O)[C@@H]1[C@H]2CCC[C@H]2CN1C(=O)c1cc2c(Cl)ccc(OCc3ccccc3)c2[nH]1)C(=O)CO` [Compound 128, (1S,3aR,6aS)-2-[7-(benzyloxy)-4-chloro-1H-indole-2-carbonyl]-N-[(2S)-4-hydroxy-3-oxo-1-[(3S)-2-oxopyrrolidin-3-yl]butan-2-yl]-hexahydro-1H-cyclopenta[c]pyrrole-1-carboxamide], the IC50 in data set [1] (bound) was > 10 µM; in data set [6], ≥ 10 µM; in [9], 0.02 to 0.2 µM. Also, the EC50 in data set [2] is < 0.1 µM; in [4] it was < 1 µM; in data set [5] it was 1 to 10 µM. Also, the CC50 at 6 days in [3] was > 10 µM. The CC50 in data set [7] and in data set [8] (class symbols) was > 10 µM in each case.

Regarding `O=C1NCC[C@H]1C[C@H](NC(=O)[C@@H]1[C@H]2CCC[C@H]2CN1C(=O)c1cc2c(Cl)cc(Oc3ccccc3)cc2[nH]1)C(=O)CO` [Compound 129, (1S,3aR,6aS)-2-(4-chloro-6-phenoxy-1H-indole-2-carbonyl)-N-[(2S)-4-hydroxy-3-oxo-1-[(3S)-2-oxopyrrolidin-3-yl]butan-2-yl]-hexahydro-1H-cyclopenta[c]pyrrole-1-carboxamide], the IC50 is > 10 µM in data set [1] (bound), ≥ 10 µM in data set [6] and < 0.02 µM in data set [9]. The EC50 in data set [2] is < 0.1 µM; in data set [4], < 1 µM; in [5] it was < 1 µM. For the same molecule, the CC50 at 6 days in data set [3] is > 10 µM. For the same molecule, the CC50 in [7] and in [8] (class symbols) was > 10 µM in each case.

On to `O=C1NCC[C@H]1C[C@H](NC(=O)[C@@H]1[C@H]2CCC[C@H]2CN1C(=O)c1cc2c(Cl)cc(OCc3ccccc3)cc2[nH]1)C(=O)CO` [Compound 130, (1S,3aR,6aS)-2-(6-(benzyloxy)-4-chloro-1H-indole-2-carbonyl)-N—((S)-4-hydroxy-3-oxo-1-((S)-2-oxopyrrolidin-3-yl)butan-2-yl)octahydrocyclopenta[c]pyrrole-1-carboxamide], for which the IC50 in data set [1] (bound) is > 10 µM; in data set [6], ≥ 10 µM; in data set [9] it was 0.02 to 0.2 µM. For the same molecule, the EC50 was < 0.1 µM in data set [2], < 1 µM in [4] and < 1 µM in [5]. Also, in [3], the CC50 at 6 days is > 10 µM. In addition, the CC50 in [7] and in data set [8] (class symbols) was > 10 µM each time.

`CC(C)(C)C(=O)OCC(=O)[C@H](C[C@@H]1CCNC1=O)NC(=O)[C@@H]1[C@H]2CCC[C@H]2CN1C(=O)c1cc2c(Cl)cc(Cl)cc2[nH]1` [Compound 132, (3S)-3-{[(1S,3aR,6aS)-2-(4,6-dichloro-1H-indole-2-carbonyl)-hexahydro-1H-cyclopenta[c]pyrrol-1-yl]formamido}-2-oxo-4-[(3S)-2-oxopyrrolidin-3-yl]butyl 2,2-dimethylpropanoate]: the IC50 in data set [1] (bound) is > 10 µM; in [6] it was ≥ 10 µM; in data set [9] it was 0.2 to 2 µM. Further, the EC50 is < 0.1 µM in data set [2], < 1 µM in [4] and < 1 µM in [5]. The molecule also returned a CC50 at 6 days in data set [3] of 1 to 10 µM. In addition, the CC50 in data set [7] and in data set [8] (class symbols) was > 10 µM throughout.

For the origin of these results see patent US11952365B2, “Anti-viral compounds” (Aligos Therapeutics, Inc., priority 2020, dated 2024).
